Data on 15 compounds can be found in patent publication US20260274832A1, “COMPOUNDS AND THEIR USE IN TREATING CANCER” (ASTRAZENECA AB, priority 2023, published 2026).

In assay [1] the target is T1, AR (AR-full length) in LNCaP cells (Homo sapiens, UniProt P10275, T878A).
T1 construct: the prostate cancer cell line LNCaP (expressing AR-full length); endogenous in cells; host or cells: LNCaP
Put plainly: LNCaP Androgen Receptor Imaging Assay (immunofluorescence of endogenous nuclear AR). Type of assay: cell-based. The settings on record: 24 h incubation; for DC50: concentration giving 50% of maximum degradation of AR per curve fit, single experiment or average of two or more; for LNCaP AR Degradation Dmax / Dmax: maximum degradation observed, normalized as % of positive control (prior art AR PROTAC at 3 μM); for Dmax: LNCaP. A digest of the protocol:
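LNCaP cells (12,000/well) received a 12-point compound dose series (0.3% DMSO) for 24 h at 37° C., then were PFA-fixed and stained for AR (AR441) and nuclei (DRAQ5). Nuclear AR was quantified by imaging, normalized to a 3 μM AR PROTAC control; DC50 and Dmax came from Hill/bell curve fits.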

Assay [2] deals with T2, AR (L702H) in LNCaP cells (Homo sapiens, UniProt P10275, L702H/T878A).
T2 construct: engineered to introduce the mutation L702H into the AR gene using CRISPR/Cas9; endogenous in cells; host or cells: LNCaP cells edited by CRISPR/Cas9 at the AR gene
T2 sequence (P10275 whole entry L702H/T878A): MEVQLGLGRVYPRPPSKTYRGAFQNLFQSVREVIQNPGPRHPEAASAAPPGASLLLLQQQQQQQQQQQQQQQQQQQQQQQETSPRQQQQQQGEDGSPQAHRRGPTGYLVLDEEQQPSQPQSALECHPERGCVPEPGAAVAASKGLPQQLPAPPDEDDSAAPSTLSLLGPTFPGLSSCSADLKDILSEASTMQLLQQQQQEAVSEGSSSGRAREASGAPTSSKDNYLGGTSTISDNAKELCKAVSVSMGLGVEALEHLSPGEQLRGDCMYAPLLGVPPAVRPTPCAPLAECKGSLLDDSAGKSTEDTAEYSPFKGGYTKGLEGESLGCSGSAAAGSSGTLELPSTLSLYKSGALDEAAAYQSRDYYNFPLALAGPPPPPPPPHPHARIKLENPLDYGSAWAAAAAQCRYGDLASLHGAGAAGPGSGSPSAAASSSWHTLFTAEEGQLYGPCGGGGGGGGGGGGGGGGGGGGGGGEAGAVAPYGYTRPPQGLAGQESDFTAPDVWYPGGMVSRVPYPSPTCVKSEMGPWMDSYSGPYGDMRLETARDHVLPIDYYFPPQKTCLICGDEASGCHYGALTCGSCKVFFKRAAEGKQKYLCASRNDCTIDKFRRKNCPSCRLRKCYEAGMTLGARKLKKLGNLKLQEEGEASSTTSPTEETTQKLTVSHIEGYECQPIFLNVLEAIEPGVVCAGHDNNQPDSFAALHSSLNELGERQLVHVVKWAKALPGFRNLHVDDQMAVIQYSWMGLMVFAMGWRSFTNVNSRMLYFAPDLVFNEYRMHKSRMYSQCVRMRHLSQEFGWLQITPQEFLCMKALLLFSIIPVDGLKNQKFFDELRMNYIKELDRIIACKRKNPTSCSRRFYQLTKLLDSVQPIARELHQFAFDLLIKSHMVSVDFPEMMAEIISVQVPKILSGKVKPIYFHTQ
T2 sequence (Q96SW2 whole entry partner): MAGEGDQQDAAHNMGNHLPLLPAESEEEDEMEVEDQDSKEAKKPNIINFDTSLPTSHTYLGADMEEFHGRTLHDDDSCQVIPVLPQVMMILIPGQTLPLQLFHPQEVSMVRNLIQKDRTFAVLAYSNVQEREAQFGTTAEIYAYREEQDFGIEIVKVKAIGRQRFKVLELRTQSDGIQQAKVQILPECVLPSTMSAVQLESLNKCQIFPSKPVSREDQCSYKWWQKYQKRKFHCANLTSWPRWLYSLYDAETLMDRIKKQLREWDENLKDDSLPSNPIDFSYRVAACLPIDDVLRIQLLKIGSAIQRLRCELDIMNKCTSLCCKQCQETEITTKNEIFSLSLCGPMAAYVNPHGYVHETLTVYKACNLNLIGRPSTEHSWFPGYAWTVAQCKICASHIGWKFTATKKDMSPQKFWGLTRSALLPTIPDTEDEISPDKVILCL
Put plainly: LNCaP Androgen Receptor L702H Imaging Assay (LNCaP cells engineered by CRISPR/Cas9). Type of assay: cell-based. As to conditions: LNCaP cells with AR L702H mutation, 24 h incubation; for DC50: concentration giving 50% of maximum degradation of AR (L702H) per curve fit; for LNCaP AR (L702H) Degradation Dmax / Dmax: maximum degradation observed, normalized as % of positive control; for Dmax: LNCaP. A digest of the protocol:
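CRISPR-engineered LNCaP cells carrying AR L702H were treated 24 h at 37 °C with a 12-point compound dose response (0.3% DMSO), then fixed and immunostained for AR with DRAQ5 nuclear counterstain. Nuclear AR was quantified by imaging, normalized to positive control; DC50 and Dmax came from Hill or bell-shaped fits.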

T1 sequence (P10275 whole entry T878A): as the sequence (P10275 whole entry L702H/T878A) above, with H702L counted along it
T1 sequence (Q96SW2 whole entry partner): as the sequence (Q96SW2 whole entry partner) above

The term DC50 denotes the concentration giving 50% degradation. Regarding `N#Cc1n[nH]c2c(N3CCOC(c4ccc(N5CCC(CN6CCC(n7ccc8c(N9CCC(=O)NC9=O)cccc87)CC6)CC5)cc4)C3)ccc(Cl)c12` (single isomer, unassigned) [Example 120, 4-Chloro-7-[(2R*)-2-{4-[4-({4-[4-(2,4-dioxo-1,3-diazinan-1-yl)-1H-indol-1-yl]piperidin-1-yl}methyl)piperidin-1-yl]phenyl}morpholin-4-yl]-1H-indazole-3-carbonitrile], in assay [1], the DC50 came to 13 nM and the “LNCaP AR Degradation Dmax” value amounted to 101%. Further, in assay [2], it took 40 nM to reach half-maximal degradation (DC50) and the “LNCaP AR (L702H) Degradation Dmax” value was 90%.
What is called Dmax is the greatest extent of degradation seen. Turning to `N#Cc1c[nH]c2c(N3CCCC(c4ccc(N5CCC(CN6CCC(n7ccc8c(N9CCC(=O)NC9=O)cccc87)CC6)CC5)nn4)C3)ccc(Cl)c12` (single isomer, unassigned) [Example 121, 4-Chloro-7-[(3R*)-3-{6-[4-({4-[4-(2,4-dioxo-1,3-diazinan-1-yl)-1H-indol-1-yl]piperidin-1-yl}methyl)piperidin-1-yl]pyridazin-3-yl}piperidin-1-yl]-1H-indole-3-carbonitrile], in assay [1], the DC50 stood at 18 nM and the Dmax came to 81%. For the same compound, in assay [2], the 50% degradation concentration (DC50) is 3100 nM and the “LNCaP AR (L702H) Degradation Dmax” value amounted to 98%.
As to `N#Cc1c[nH]c2c(N3CCCC(c4ccc(N5CCC(CN6CCC(n7ccc8c(N9CCC(=O)NC9=O)cccc87)CC6)CC5)nn4)C3)ccc(Cl)c12` (single isomer, unassigned) [Example 122, 4-Chloro-7-[(3S*)-3-{6-[4-({4-[4-(2,4-dioxo-1,3-diazinan-1-yl)-1H-indol-1-yl]piperidin-1-yl}methyl)piperidin-1-yl]pyridazin-3-yl}piperidin-1-yl]-1H-indole-3-carbonitrile], in assay [1], the DC50 was found to be 93 nM and the “LNCaP AR Degradation Dmax” value was determined as 85%. Also, in assay [2], the DC50 turned out to be 67 nM and the “LNCaP AR (L702H) Degradation Dmax” value is 75%.
`Cc1ccc(N2CCC(c3ccc(OCCCCN4CCN(c5ccc6c(c5)CN(C5CCC(=O)NC5=O)C6=O)CC4)cc3)C2)c2[nH]cc(C#N)c12` (single isomer, unassigned) [Example 150, 7-{(3S*)-3-[4-(4-{4-[2-(2,6-Dioxopiperidin-3-yl)-1-oxo-2,3-dihydro-1H-isoindol-5-yl]piperazin-1-yl}butoxy)phenyl]pyrrolidin-1-yl}-4-methyl-1H-indole-3-carbonitrile]: in assay [1], the DC50 amounted to 14 nM and the Dmax was found to be 82%. In addition, in assay [2], the DC50 came to 893 nM and the Dmax worked out at 50%.
Regarding `Cc1ccc(N2CCC(c3ccc(OCCCCN4CCN(c5ccc6c(c5)CN(C5CCC(=O)NC5=O)C6=O)CC4)cc3)C2)c2[nH]cc(C#N)c12` (single isomer, unassigned) [Example 151, 7-{(3R*)-3-[4-(4-{4-[2-(2,6-Dioxopiperidin-3-yl)-1-oxo-2,3-dihydro-1H-isoindol-5-yl]piperazin-1-yl}butoxy)phenyl]pyrrolidin-1-yl}-4-methyl-1H-indole-3-carbonitrile], in assay [1], the DC50 amounted to 18 nM and the “LNCaP AR Degradation Dmax” value worked out at 67%. In assay [2], half-maximal degradation (DC50) was put at 497 nM and the “LNCaP AR (L702H) Degradation Dmax” value was 42%.
As to `N#Cc1c[nH]c2c(N3CCCC(NC(=O)c4ccc(N5CCC(CN6CCN(c7ccc8c(c7)CN(C7CCC(=O)NC7=O)C8=O)CC6)CC5)cn4)C3)ccc(Cl)c12` (single isomer, unassigned) [Example 180, N-[(3R*)-1-(4-Chloro-3-cyano-1H-indol-7-yl)piperidin-3-yl]-5-[4-({4-[2-(2,6-dioxopiperidin-3-yl)-1-oxo-2,3-dihydro-1H-isoindol-5-yl]piperazin-1-yl}methyl)piperidin-1-yl]pyridine-2-carboxamide], the figures for the DC50 in assay [1] and in assay [2] were 3 nM and 2 nM, respectively. For the same compound, the Dmax in assay [1] came to 94%; in assay [2], 88%.
Turning to `N#Cc1c[nH]c2c(N3CCCC(NC(=O)c4ccc(N5CCC(CN6CCN(c7ccc8c(c7)CN(C7CCC(=O)NC7=O)C8=O)CC6)CC5)cn4)C3)ccc(Cl)c12` (single isomer, unassigned) [Example 181, N-[(3S*)-1-(4-Chloro-3-cyano-1H-indol-7-yl)piperidin-3-yl]-5-[4-({4-[2-(2,6-dioxopiperidin-3-yl)-1-oxo-2,3-dihydro-1H-isoindol-5-yl]piperazin-1-yl}methyl)piperidin-1-yl]pyridine-2-carboxamide], in assay [1], half-maximal degradation (DC50) was put at 4 nM and the “LNCaP AR Degradation Dmax” value came out at 95%. In assay [2], it took 9 nM to reach half-maximal degradation (DC50) and the “LNCaP AR (L702H) Degradation Dmax” value was found to be 95%.
Consider `N#Cc1c[nH]c2c(N3CCC(c4ccc(N5CCC(CN6CCN(c7ccc8c(c7)CN(C7CCC(=O)NC7=O)C8=O)CC6)CC5)cc4)CC3)ccc(Cl)c12` (stereo not drawn) [Example 1, 4-Chloro-7-(4-{4-[4-({4-[2-(2,6-dioxopiperidin-3-yl)-1-oxo-2,3-dihydro-1H-isoindol-5-yl]piperazin-1-yl}methyl)piperidin-1-yl]phenyl}piperidin-1-yl)-1H-indole-3-carbonitrile], for which, in assay [1], half-maximal degradation (DC50) was put at 6 nM and the Dmax is 99%. For the same compound, in assay [2], half-maximal degradation (DC50) was put at 6 nM and the Dmax is 100%.
For the compound `N#Cc1c[nH]c2c(N3CCC(c4ccc(N5CCC(CN6CCN(c7ccc8c(c7)CN(C7CCC(=O)NC7=O)C8=O)CC6)CC5)cc4)CC3)ccc(F)c12` (stereo not drawn) [Example 2, 7-(4-{4-[4-({4-[2-(2,6-Dioxopiperidin-3-yl)-1-oxo-2,3-dihydro-1H-isoindol-5-yl]piperazin-1-yl}methyl)piperidin-1-yl]phenyl}piperidin-1-yl)-4-fluoro-1H-indole-3-carbonitrile], in assay [1], the DC50 was 6 nM and the Dmax was 96%. Moreover, in assay [2], it took 5 nM to reach half-maximal degradation (DC50) and the Dmax amounted to 101%.
In the same order, the values of `N#Cc1c[nH]c2c(N3CCC(c4ccc(N5CCC(CN6CCC(n7ccc8c(N9CCC(=O)NC9=O)cccc87)CC6)CC5)cc4)CC3)ccc(Cl)c12` [Example 5, 4-Chloro-7-(4-{4-[4-({4-[4-(2,4-dioxo-1,3-diazinan-1-yl)-1H-indol-1-yl]piperidin-1-yl}methyl)piperidin-1-yl]phenyl}piperidin-1-yl)-1H-indole-3-carbonitrile] are 8 nM, 103%, 12 nM and 110%.
For `N#Cc1c[nH]c2c(N3CCC(c4ccc(N5CCC(CN6CCC(n7ccc8c(N9CCC(=O)NC9=O)cccc87)CC6)CC5)cc4)CC3)ccc(F)c12` [Example 6, 7-(4-{4-[4-({4-[4-(2,4-Dioxo-1,3-diazinan-1-yl)-1H-indol-1-yl]piperidin-1-yl}methyl)piperidin-1-yl]phenyl}piperidin-1-yl)-4-fluoro-1H-indole-3-carbonitrile], in assay [1], the 50% degradation concentration (DC50) was 10 nM and the Dmax was found to be 100%. Moreover, in assay [2], it took 13 nM to reach half-maximal degradation (DC50) and the Dmax stood at 103%.
Take `COc1cc(N2CCN(CC3CCN(c4ccc(C5CCN(c6ccc(Cl)c7c(C#N)c[nH]c67)CC5)cc4)CC3)CC2)cc2c1C(=O)N(C1CCC(=O)NC1=O)C2` (stereo not drawn) [Example 7, 4-Chloro-7-(4-{4-[4-({4-[2-(2,6-dioxopiperidin-3-yl)-7-methoxy-1-oxo-2,3-dihydro-1H-isoindol-5-yl]piperazin-1-yl}methyl)piperidin-1-yl]phenyl}piperidin-1-yl)-1H-indole-3-carbonitrile]: in assay [1], it took 9 nM to reach half-maximal degradation (DC50) and the Dmax came to 98%. Further, in assay [2], the DC50 stood at 14 nM and the Dmax came to 101%.
In the same order, the values of `Cc1ccc(N2CCC(c3ccc(N4CCC(CN5CCC(n6ccc7c(N8CCC(=O)NC8=O)cccc76)CC5)CC4)cc3)CC2)c2[nH]cc(C#N)c12` [Example 8, 7-(4-{4-[4-({4-[4-(2,4-Dioxo-1,3-diazinan-1-yl)-1H-indol-1-yl]piperidin-1-yl}methyl)piperidin-1-yl]phenyl}piperidin-1-yl)-4-methyl-1H-indole-3-carbonitrile] are 29 nM, 99%, 103 nM and 96%.
On to `N#Cc1n[nH]c2c(N3CCC[C@@H](c4ccc(N5CCC(CN6CCC(n7ccc8c(N9CCC(=O)NC9=O)cccc87)CC6)CC5)cc4)C3)ccc(Cl)c12` [Example 9], for which the DC50 in assay [1] stood at 7 nM; in assay [2], 9 nM. Moreover, the figures for the Dmax in assay [1] and in assay [2] were 105% and 106%, respectively.
Regarding `N#Cc1n[nH]c2c(N3CCC[C@@H](c4ccc(N5CCC(CN6CCN(c7ccc8c(c7)CN(C7CCC(=O)NC7=O)C8=O)CC6)CC5)cc4)C3)ccc(Cl)c12` (stereo partly drawn) [Example 10, 4-Chloro-7-[(3S)-3-{4-[4-({4-[2-(2,6-dioxopiperidin-3-yl)-1-oxo-2,3-dihydro-1H-isoindol-5-yl]piperazin-1-yl}methyl)piperidin-1-yl]phenyl}piperidin-1-yl]-1H-indazole-3-carbonitrile], in assay [1], the DC50 came to 7 nM and the Dmax turned out to be 96%. In assay [2], it took 5 nM to reach half-maximal degradation (DC50) and the Dmax is 103%.
